# Laboratory results from article PMC3390344, “Antibacterial Activity and Mechanism of a Scorpion Venom Peptide Derivative In Vitro and In Vivo” (PLoS ONE, 2012).
# Ends that are not written are not given here.
# How the values were obtained:
# E. coli AB94012 [1] = assay: Bactericidal assay (time-killing); type: cell-based; conditions: samples at 0, 5, 15, 30, 60 min, colony counts, average of three dishes
# Description: Figure 5 Bactericidal assays of the Kn2-7 and BmKn2 peptides against S. aureus and E. coli AB94012. Set point indicates untreated bacteria, and 0 minutes was defined as the time of the first sample collection, which was immediately after mixing bacteria and Kn2-7 or BmKn2. The other samples were collected at 5 min, 15 min, 30 min or 60 min. All of the counts were the average of three dishes, and the experiment was repeated at least three times. (A) Time-killing curve of Kn2-7 against S. aureus AB94004. (B) Time-killing curve of BmKn2 against S. aureus AB94004. (C) Time-killing curve of Kn2-7 against E. coli AB94012.
# Bactericidal curves for Kn2-7 and BmKn2 were determined against S. aureus AB94004 and E. coli AB94012. A 400 µl aliquot of the peptide solution was added to 1,600 µl of a bacterial suspension. At each time point, 200 µl of the treated bacterial suspension was transferred to a sterilized 1.5-ml tube. After centrifugation at 1,000×g for 5 min, the supernatant was removed, and the pellet was resuspended in 200 µl of LB medium. The bacterial suspensions were placed on agar plates and incubated at 37°C until viable colonies could be counted.
# MRSA P1386 = assay: Growth inhibitory assay (growth curves); type: cell-based, S. aureus; conditions: measurements at 630 nm, 96-well plates; Figure 2B
# Description: (§1) Figure 2 Gowth inhibitory activities of Kn2-7. (A) Growth curves of S. aureus AB94004 treated with Kn2-7, BmKn2 or antibiotics. (B) Growth curves of MRSA P1386 treated with Kn2-7, BmKn2 or antibiotics. (C) Growth curves of E. coli AB94012 treated with Kn2-7, BmKn2 or antibiotics.
# (§2) The time growth curves of S. aureus and MRSA treated with BmKn2 or its derivatives were determined based on measurements taken at 630 nm at each time point. Different concentrations of peptide were added to the tested strains, which were cultured in 96-well plates using the same method as was used for determining the MIC.
# E. coli AB94012 [2] = assay: Enzyme release assay (catalase); type: cell-based; conditions: E. coli AB94012, 37°C; 0.9% saline negative control; Figure 4D
# Description: (§3) Figure 4 Secondary structure and enzyme release assay of Kn2-7. (A) and (B) Secondary structure analysis of the Kn2-7 and BmKn2 peptides. (A) Circular dichroism spectra of 0.1 mg/mL of Kn2-7 in water, 30% TFE/H2O or 70% TFE/H2O. (B) Circular dichroism spectra of 0.1 mg/mL of BmKn2 in water, 30% TFE/H2O or 70% TFE/H2O. (C) and (D) Enzyme release assay. (C) S. aureus AB94004 treated with Kn2-7 or BmKn2 was harvested, and the catalase activities of the supernatants were measured; 0.9% saline was used as the negative control, and ampicillin sodium was used as the antibiotic control. (D) E. coli AB94012 treated with Kn2-7 or BmKn2 was harvested, and the catalase activities in the supernatants were measured; 0.9% saline was used as the negative control, and kanamycin was used as the antibiotic control.
# (§4) Bacterial suspensions and serial-diluted peptides were mixed at a ratio of 4∶1 in different tubes with a final volume of 2 ml. The mixtures were then incubated at 37°C with continuous shaking. At each time point, 200 µl of the treated bacterial suspension was transferred to sterilized tubes. After centrifugation, the supernatants were transferred to a sterilized 1.5-ml tube, and catalase activity was measured with a Catalase Assay Kit (Beyotime, Jiangsu, China) using the method for measuring peroxidase activity.
# S. aureus AB94004 [3] = assay: Enzyme release assay (catalase); type: cell-based; conditions: S. aureus AB94004, 37°C; 0.9% saline negative control; Figure 4C
# Description: as §3, §4
# Biolayer interferometry = type: binding, S. aureus; conditions: 10 µg/mL biotinylated peptide on biosensor tips, 500 µg/mL LTA, 10 mM HEPES pH 7.4, 0.14 M NaCl, 30°C
# Description: Figure 7 Binding assay of Kn2-7 and LTA or LPS. (A) Interaction of 10 µg/ml of Kn2-7 with 500 µg/ml of LPS or 500 µg/mL of LTA. Curve A3 is LPS, curve B3 is LTA and curve C3 is buffer. (B) Interaction of 10 µg/mL of BmKn2 with 500 µg/mL of LPS or 500 µg/mL of LTA. Curve D3 is LPS, curve E3 is LTA and curve F3 is the buffer. (C) MICs of Kn2-7 and BmKn2 treated with LTA or LPS against S. aureus and E. coli.
# Biolayer Interferometry (BLI) experiments were performed on OCT RED (FortéBio, Inc.). A total of 500 µg/mL of lipoteichoic acid from S. aureus (LTA, Sigma, L2515), lipopolysaccharides from E. coli (LPS, Sigma, L2880) or buffer (10 mM HEPES, pH 7.4 and 0.14 M NaCl) was dispensed into 96-well microtiter plates at a volume of 200 µl per well. The operating temperature was 30°C. Biosensor tips (FortéBio, Inc., Menlo Park, CA) were pre-wetted with the buffer for 60 seconds at baseline. Then, 10 µg/mL Biotin-Kn2-7 or Biotin-BmKn2 was loaded onto the biosensor tips for 900 seconds. Baseline 2 was subsequently established for 300 seconds. Dissociation of Kn2-7 or BmKn2 occurred for 900 seconds in the buffer. Data were generated automatically by the Octet® User Software (version 3.1) and were subsequently analyzed from the resultant text files using Excel 2000.
# S. aureus AB94004 [4] = type: cell-based; conditions: for MIC S.aureus, substance alone: controls of the competition assay (Figure 7C): untreated peptide, or LTA / LPS alone
# Description: To confirm the results of the BLI titrations, 250 µg/mL of Kn2-7 or BmKn2 was mixed with an equal volume of 1 mg/mL LTA or LPS. Then, the MICs of Kn2-7 or BmKn2 mixed with LTA against S. aureus and E. coli were measured. […] The MICs of Kn2-7 and BmKn2 treated with LTA against S. aureus were 25 and 12.5 µg/mL, respectively.
# A total of 250 µg/mL of each peptide solution was mixed with an equal volume of 1 mg/mL of the LTA or LPS solution. Then, the MICs of BmKn2 and Kn2-7 treated with LTA or LPS against S. aureus AB94004 and E. coli AB94012 were measured.
# E. coli AB94012 [5] = assay: Growth inhibitory assay (growth curves); type: cell-based; conditions: at a concentration of 6.25 µg/mL; Figure 2C
# Description: as §1, §2
# S. aureus AB94004 [6] = assay: Growth inhibitory assay (growth curves); type: cell-based; conditions: at a concentration of MICs; measurements at 630 nm, 96-well plates; Figure 2A
# Description: as §1, §2
Substance,Bactericidal effect (time-killing curve) (E. coli AB94012 [1]),Growth inhibition of MRSA P1386 (growth curve) (MRSA P1386),Catalase activity of the supernatant over time (E. coli AB94012 [2]),Catalase activity of the supernatant over time (S. aureus AB94004 [3]),Binding to LTA (BLI) (Biolayer interferometry),"MIC S.aureus, substance alone (S. aureus AB94004 [4]) [µg/mL]",Growth inhibition of E. coli AB94012 (growth curve) (E. coli AB94012 [5]),Growth inhibition of S. aureus (growth curve) (S. aureus AB94004 [6]),"MIC S.aureus, peptide treated with LPS (S. aureus AB94004 [4]; 250 µg/mL peptide mixed with equal volume of 1 mg/mL LPS) [µg/mL]","MIC S.aureus, peptide treated with LTA (S. aureus AB94004 [4]; 250 µg/mL peptide mixed with equal volume of 1 mg/mL LTA) [µg/mL]"
FIKRIARLLRKIF [Kn2-7],able to kill E. coli AB94012 rapidly,inhibited the growth of MRSA P1386 completely,nearly the same high enzymatic activity at each time point,almost the same catalase activity at each time point,bound strongly,3.13,inhibited the growth of E. coli AB94012,inhibited the growth of S. aureus completely,–,–
FIGAIARLLSKIF-NH2 [BmKn2],not able to kill E. coli AB94012,inhibited the growth of MRSA P1386 completely,low catalase activity at each time point,almost the same catalase activity at each time point,bound strongly,6.25,had no effect against E. coli AB94012,inhibited the growth of S. aureus completely,6.25,12.5
